Assay results: patent US7951829B2, “Benzimidazole modulators of VR1” (Janssen Pharmaceutica NV, priority 2006, dated 2011)

Target: T1, hVR1 (Homo sapiens, UniProt Q8NER1)
T1 construct: expressed in transfected cells; host or cells: HEK293
Experiment: Human VR1 (hVR1) Functional Assay (FLIPR intracellular calcium, capsaicin challenge)
Type: cell-based
Conditions: capsaicin 0.030 μM, HEK293 cells expressing hVR1; for inhibition at 1 µM: test concentration 1 μM

T1 sequence (Q8NER1 whole entry): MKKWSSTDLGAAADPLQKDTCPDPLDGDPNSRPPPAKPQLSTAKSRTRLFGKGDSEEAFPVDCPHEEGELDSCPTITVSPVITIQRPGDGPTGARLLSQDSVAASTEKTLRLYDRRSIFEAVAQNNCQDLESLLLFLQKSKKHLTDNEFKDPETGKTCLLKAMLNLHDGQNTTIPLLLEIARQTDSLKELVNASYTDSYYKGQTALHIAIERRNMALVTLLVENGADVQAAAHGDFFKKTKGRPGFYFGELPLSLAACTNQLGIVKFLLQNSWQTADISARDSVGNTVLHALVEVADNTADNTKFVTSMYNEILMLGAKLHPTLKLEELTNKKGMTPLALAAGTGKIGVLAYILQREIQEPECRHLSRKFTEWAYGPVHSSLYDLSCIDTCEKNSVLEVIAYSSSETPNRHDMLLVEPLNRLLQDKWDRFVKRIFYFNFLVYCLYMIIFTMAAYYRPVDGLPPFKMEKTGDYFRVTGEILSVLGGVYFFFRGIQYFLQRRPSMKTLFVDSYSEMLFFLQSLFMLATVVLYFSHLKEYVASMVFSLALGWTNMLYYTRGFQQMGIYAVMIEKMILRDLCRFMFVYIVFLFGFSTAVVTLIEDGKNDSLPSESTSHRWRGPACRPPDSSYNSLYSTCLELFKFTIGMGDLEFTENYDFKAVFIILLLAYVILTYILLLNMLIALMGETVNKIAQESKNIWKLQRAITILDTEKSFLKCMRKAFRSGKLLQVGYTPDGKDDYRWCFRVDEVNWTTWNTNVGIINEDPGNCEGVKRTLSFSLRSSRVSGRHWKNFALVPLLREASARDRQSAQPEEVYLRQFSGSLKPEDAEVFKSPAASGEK

| IC50 [nM] | inhibition at 1 µM [%] | SMILES |
| --- | --- | --- |
| 12 | 99 | NS(=O)(=O)c1ccccc1-c1ccc2[nH]c(/C=C/c3ccc(SC(F)(F)F)cc3)nc2c1 [Cpd 380, (E)-2-{2-[2-(4-trifluoromethylsulfanyl-phenyl)-vinyl]-1H-benzimidazol-5-yl}-benzenesulfonamide] |
| 104 | 96 | CNS(=O)(=O)c1ccccc1-c1ccc2[nH]c(/C=C/c3cccc(Br)c3)nc2c1 [Cpd 338, (E)-2-{2-[2-(3-bromo-phenyl)-vinyl]-1H-benzimidazol-5-yl}-N-methyl-benzenesulfonamide] |
| 190 | 86 | Cc1ccc(/C=C/c2nc3cc(-c4ccccc4NS(C)(=O)=O)ccc3[nH]2)cc1 [Cpd 412, (E)-N-{2-[2-(2-p-tolyl-vinyl)-1H-benzimidazol-5-yl]-phenyl}-methanesulfonamide] |
| 343 | 77 | CNS(=O)(=O)c1ccccc1-c1ccc2[nH]c(/C=C/c3c(F)cccc3F)nc2c1 [Cpd 327, (E)-2-{2-[2-(2,6-difluoro-phenyl)-vinyl]-1H-benzimidazol-5-yl}-N-methyl-benzenesulfonamide] |
| 52 | 93 | COc1ccc(C2CC2c2nc3cc(-c4ccccc4C(C)(C)O)ccc3[nH]2)cc1 (stereo not drawn) [Cpd 494, 2-(2-{2-[2-(4-methoxy-phenyl)-cyclopropyl]-1H-benzimidazol-5-yl}-phenyl)-propan-2-ol] |
| 35 | 97 | NS(=O)(=O)c1ccccc1-c1ccc2[nH]c(/C=C/c3cccc(Cl)c3F)nc2c1 [Cpd 431, (E)-2-{2-[2-(3-chloro-2-fluoro-phenyl)-vinyl]-1H-benzimidazol-5-yl}-benzenesulfonamide] |
| 260 | 97 | NC(=O)c1ccccc1-c1cc2nc(/C=C/c3ccc(C(F)(F)F)cc3)[nH]c2cc1F [Cpd 63, (E)-2-{6-fluoro-2-[2-(4-trifluoromethyl-phenyl)-vinyl]-1H-benzimidazol-5-yl}-benzamide] |
|  | 7 | CC(C)(C)NS(=O)(=O)c1ccccc1-c1ccc2[nH]c(C3CC3c3ccc(C(F)(F)F)cc3)nc2c1 (stereo not drawn) [Cpd 499, N-tert-butyl-2-{2-[2-(4-trifluoromethyl-phenyl)-cyclopropyl]-1H-benzimidazol-5-yl}-benzenesulfonamide] |
| 7 | 98 | CS(=O)(=O)c1ccccc1-c1ccc2[nH]c(/C=C/c3ccc(C(F)(F)F)cc3)nc2c1 [Cpd 422, (E)-5-(2-methanesulfonyl-phenyl)-2-[2-(4-trifluoromethyl-phenyl)-vinyl]-1H-benzimidazole] |
| 54 | 99 | NS(=O)(=O)c1ccccc1-c1ccc2[nH]c(CCc3cc(C(F)(F)F)ccc3C(F)(F)F)nc2c1 [Cpd 388, 2-{2-[2-(2,5-bis-trifluoromethyl-phenyl)-ethyl]-1H-benzimidazol-5-yl}-benzenesulfonamide] |
| 44 | 100 | CNS(=O)(=O)c1ccccc1-c1ccc2[nH]c(/C=C/c3ccc(Cl)cc3)nc2c1 [Cpd 347, (E)-2-{2-[2-(4-chloro-phenyl)-vinyl]-1H-benzimidazol-5-yl}-N-methyl-benzenesulfonamide] |
| 85 | 99 | CC(C)(O)c1ccccc1-c1ccc2[nH]c([C@@H]3C[C@H]3c3ccc(C(F)(F)F)cc3)nc2c1 [Cpd 501, 2-(2-{2-[(1R,2R)-2-(4-trifluoromethyl-phenyl)-cyclopropyl]-1H-benzimidazol-5-yl}-phenyl)-propan-2-ol] |
|  | 4 | FC(F)(F)Oc1ccccc1-c1ccc2[nH]c(/C=C/c3ccc(C(F)(F)F)cc3)nc2c1 [Cpd 488, (E)-5-(2-trifluoromethoxy-phenyl)-2-[2-(4-trifluoromethyl-phenyl)-vinyl]-1H-benzimidazole] |
| 49 | 98 | CNS(=O)(=O)c1ccccc1-c1ccc2[nH]c(/C=C/c3cccc(C(F)(F)F)c3F)nc2c1 [Cpd 332, (E)-2-{2-[2-(2-fluoro-3-trifluoromethyl-phenyl)-vinyl]-1H-benzimidazol-5-yl}-N-methyl-benzenesulfonamide] |
| 19 | 100 | NC(=O)c1ccccc1-c1ccc2[nH]c(C3CC3c3ccc(C(F)(F)F)cc3)nc2c1 (stereo not drawn) [Cpd 498, 2-{2-[2-(4-trifluoromethyl-phenyl)-cyclopropyl]-1H-benzimidazol-5-yl}-benzamide] |
| > 500 |  | O=Cc1ccccc1-c1ccc2[nH]c(/C=C/c3ccc(C(F)(F)F)cc3)nc2c1 [Cpd 484, (E)-2-{2-[2-(4-trifluoromethyl-phenyl)-vinyl]-1H-benzimidazol-5-yl}-benzaldehyde] |
| 210 | 100 | CC(C)(C)c1ccc(/C=C/c2nc3cc(-c4ccccc4N)ccc3[nH]2)cc1 [Cpd 11, (E)-2-{2-[2-(4-tert-butyl-phenyl)-vinyl]-1H-benzimidazol-5-yl}-phenylamine] |
| 130 | 98 | CC(=O)c1ccccc1-c1cc2nc(/C=C/c3ccc(C(F)(F)F)cc3)[nH]c2cc1Cl [Cpd 67, (E)-1-(2-{6-chloro-2-[2-(4-trifluoromethyl-phenyl)-vinyl]-1H-benzimidazol-5-yl}-phenyl)-ethanone] |

| IC50 [nM] | inhibition at 1 µM [%] | SMILES |
| --- | --- | --- |
| 10 | 95 | CC(C)(O)c1ccccc1-c1ccc2[nH]c(C3CC3c3ccc(Cl)cc3)nc2c1 (stereo not drawn) [Cpd 198, 2-(2-{2-[2-(4-chloro-phenyl)-cyclopropyl]-1H-benzimidazol-5-yl}-phenyl)-propan-2-ol] |
| 270 | 89 | NC(=O)c1ccccc1-c1ccc2[nH]c(/C=C/c3ccc(SC(F)(F)F)cc3)nc2c1 [Cpd 38, (E)-2-{2-[2-(4-trifluoromethylsulfanyl-phenyl)-vinyl]-1H-benzimidazol-5-yl}-benzamide] |
| 27 | 97 | NS(=O)(=O)c1ccccc1-c1ccc2[nH]c(/C=C/c3cc(F)cc(F)c3)nc2c1 [Cpd 361, (E)-2-{2-[2-(3,5-difluoro-phenyl)-vinyl]-1H-benzimidazol-5-yl}-benzenesulfonamide] |
|  | 10 | Cc1cccc(-c2ccc3[nH]c(CCCc4ccc(C(C)(C)C)cc4)nc3c2)c1 [Cpd 30, 2-[3-(4-tert-butyl-phenyl)-propyl]-5-m-tolyl-1H-benzimidazole] |
| 21 | 97 | NS(=O)(=O)c1ccccc1-c1ccc2[nH]c(CCc3cc(F)c(F)cc3F)nc2c1 [Cpd 385, 2-{2-[2-(2,4,5-trifluoro-phenyl)-ethyl]-1H-benzimidazol-5-yl}-benzenesulfonamide] |
| 8 | 99 | NS(=O)(=O)c1ccccc1-c1ccc2[nH]c(/C=C/c3cccc(OC(F)(F)F)c3)nc2c1 [Cpd 362, (E)-2-{2-[2-(3-trifluoromethoxy-phenyl)-vinyl]-1H-benzimidazol-5-yl}-benzenesulfonamide] |
| 156 | 91 | CS(=O)(=O)Nc1ccccc1-c1ccc2[nH]c(/C=C/c3ccc(OC(F)F)cc3)nc2c1 [Cpd 410, (E)-N-(2-{2-[2-(4-difluoromethoxy-phenyl)-vinyl]-1H-benzimidazol-5-yl}-phenyl)-methanesulfonamide] |
| 1700 |  | CC(C)(C)c1ccc(CCc2nc3cc(-c4cccc(O)c4)ccc3[nH]2)cc1 [Cpd 33, 3-{2-[2-(4-tert-butyl-phenyl)-ethyl]-1H-benzimidazol-5-yl}-phenol] |
|  | 16 | CS(=O)(=O)c1ccc(/C=C/c2nc3cc(-c4ccccc4S(N)(=O)=O)ccc3[nH]2)cc1 [Cpd 85, (E)-2-{2-[2-(4-methanesulfonyl-phenyl)-vinyl]-1H-benzimidazol-5-yl}-benzenesulfonamide] |
| 162 | 86 | CNS(=O)(=O)c1ccccc1-c1ccc2[nH]c(/C=C/c3ccccc3Br)nc2c1 [Cpd 348, (E)-2-{2-[2-(2-bromo-phenyl)-vinyl]-1H-benzimidazol-5-yl}-N-methyl-benzenesulfonamide] |
| 20 | 97 | NS(=O)(=O)c1ccccc1-c1ccc2[nH]c(/C=C/c3ccc(C(F)F)cc3)nc2c1 [Cpd 435, (E)-2-{2-[2-(4-difluoromethyl-phenyl)-vinyl]-1H-benzimidazol-5-yl}-benzenesulfonamide] |
| 13 | 98 | NS(=O)(=O)c1ccccc1-c1ccc2[nH]c(/C=C/c3ccc(F)c(F)c3F)nc2c1 [Cpd 370, (E)-2-{2-[2-(2,3,4-trifluoro-phenyl)-vinyl]-1H-benzimidazol-5-yl}-benzenesulfonamide] |
| 13 | 100 | CNS(=O)(=O)c1ccccc1-c1ccc2[nH]c(/C=C/c3ccc(C(F)(F)F)cc3F)nc2c1 [Cpd 320, (E)-2-{2-[2-(2-fluoro-4-trifluoromethyl-phenyl)-vinyl]-1H-benzimidazol-5-yl}-N-methyl-benzenesulfonamide] |
| 32 | 93 | NS(=O)(=O)c1ccccc1-c1ccc2[nH]c(CCc3ccccc3F)nc2c1 [Cpd 419, 2-{2-[2-(2-fluoro-phenyl)-ethyl]-1H-benzimidazol-5-yl}-benzenesulfonamide] |
| 16 | 100 | NS(=O)(=O)c1ccccc1-c1ccc2[nH]c(C#Cc3cccc(C(F)(F)F)c3)nc2c1 [Cpd 295, 2-[2-(3-trifluoromethyl-phenylethynyl)-1H-benzimidazol-5-yl]-benzenesulfonamide] |
| 18 | 100 | CNS(=O)(=O)c1ccccc1-c1ccc2[nH]c(/C=C/c3ccc(C)cc3)nc2c1 [Cpd 314, (E)-N-methyl-2-[2-(2-p-tolyl-vinyl)-1H-benzimidazol-5-yl]-benzenesulfonamide] |
|  | 0 | O=S(=O)(CC(F)(F)F)Nc1ccccc1-c1ccc2[nH]c(/C=C/c3ccc(C(F)(F)F)cc3)nc2c1 [Cpd 459, (E)-2,2,2-trifluoro-ethanesulfonic acid (2-{2-[2-(4-trifluoromethyl-phenyl)-vinyl]-1H-benzimidazol-5-yl}-phenyl)-amide] |
